# Test results reported in patent publication EP0540676B1, “PEPTIDE COMPOUNDS HAVING GROWTH HORMONE RELEASING ACTIVITY” (POLYGEN HOLDING CORPORATION, priority 1990, dated 1994).
# Several values for one entry are separate records, joined by “and”; a condition that tells them apart may be missing. Equal values may be shown once. Where a SMILES comes first, the peptide text is derived from it. [ ]: non-standard residue; d: D form.
# Tested on: GH Release
# Experiment: In vivo GH release in pentobarbital anesthetized rats (serum GH by RIA)
# Settings: for GH Released by Compound in Column A: Table 4, pentobarbital anesthetized rats; for GH Released by Compound in Column A / GH Released Serum GH ng/ml ± SEM (N=6): sacrificed 10 minutes after final injection; for GH Released by Compound in Column A / GH Released: mean ± SEM, six rats; for GH Released: Table 5, anesthetized rats; for activity compared with peptides having another residue in the A₂ position: in words, summary of Tables 3, 4, 5 and 6, rats; for GH Released Serum GH ng/ml ± SEM (N=6): Table 6, pentobarbital anesthetized rats (table title)
# Experimental: Immature female Sprague-Dawley rats were obtained from the Charles River Laboratories (Wilmington, MA). After arrival they were housed at 25 °C with a 14:10 hour light:dark cycle. Water and Purina rat chow were available ad libitum. Pups were kept with their mothers until 21 days of age.
# Twenty-six day old rats, six rats per treatment group, were anesthetized interperitoneally with 50 mg/Kg of pentobarbital 20 minutes prior to i.v. treatment with peptide. Normal saline with 0.1% gelatin was the vehicle for intravenous (i.v.) injections of the peptides. The anesthetized rats, weighing 55-65 grams, were injected i.v. with the quantity of growth hormone releasing compounds indicated in Tables 3, 4 and 5. Injection was made as a 0.2 mL solution into the jugular vein.
# All animals were sacrificed by guillotine 10 minutes after the final test injection (see Tables 3 and 4). Trunk blood for the determination of blood GH levels was collected following decapitation. After allowing the blood to clot, it was centrifuged and the serum was separated from the clot. Serum was kept fozen until the day of sampling for radioimmunasay (RIA) determination of growth hormone levels according to the following procedure, as developed by the National Institute of Arthritis, Diabetes and Digestive and Kidney Diseases (NIADDK).
# Reagents are generally added to the RIA analysis tubes at a single sitting, at refrigerator temperature (about 4 °C) in the following sequence: • (a) buffer, • (b) "cold" (i.e., non-radioactive) standard or unknown serum sample to be analyzed, • (c) radio-iodinated growth hormone antigen, and • (d) growth hormone antiserum. Reagent addition is generally carried out so that there is achieved a final RIA tube dilution of about 1:30,000 (antiserum to total liquid volume; vol:vol).
# The mixed reagents are then typically incubated at room temperature (about 25 °C) for about 24 hours prior to addition of a second antibody (e.g., goat or rabbit anti-monkey gamma globulin serum) which binds to and causes precipitation of the complexed growth hormone anti serum. Precipitated contents of the RIA tubes are then analyzed for the number of counts in a specified period of time in a gamma scintillation counter. A standard curve is prepared by plotting number of radioactive counts versus growth hormone (GH) level. GH levels of unknowns are then determined by reference to the standard curve.
# Serum GH was measured by RIA with reagents provided by the National Hormone and Pituitary Program.
# Serum levels in Tables 3, 4, 5 and 6 are recorded in ng/mL in terms of the rat GH standard of 0.61 International Units/mg (IU/mg). Data is recorded as the mean +/- standard error of the mean (SEM). Statistical analysis was performed with Student's t-test. NS means the difference was not statistically significant. In Tables 3, 4, 5 and 6 the results shown are the average of studies with six rats.
# [1] = Total Dose 0.3 µg, several experiments with different controls
# [2] = Total Dose 1.0 µg, several experiments with different controls
structure (smiles),measurement,setting,value
C[C@H](N)C(=O)N[C@@H](Cc1c[nH]cn1)C(=O)N1CCC[C@@H]1C(=O)N[C@@H](C)C(=O)N[C@@H](Cc1c[nH]c2ccccc12)C(=O)N[C@H](Cc1ccccc1)C(=O)N[C@@H](CCCCN)C(N)=O [AlaHisDProAlaTrpDPheLysNH₂] (HELM PEPTIDE1{A.H.[dP].A.W.[dF].K.[am]}$$$$V2.0),GH Released by Compound in Column A,Total Dose .3 µg i.v.,262 ± 51 ng/mL
C[C@H](NC(=O)[C@@H](Cc1ccccc1)NC(=O)[C@H](Cc1c[nH]c2ccccc12)NC(=O)[C@H](C)NC(=O)[C@@H](Cc1ccc2ccccc2c1)NC(=O)[C@@H](N)Cc1c[nH]cn1)C(=O)N[C@@H](CCCCN)C(N)=O [His-D^βNal-Ala-Trp-DPhe-Ala-Lys-NH₂] (HELM PEPTIDE1{H.[O=C([C@@H](Cc1ccc2ccccc2c1)N[*:1])[*:2]].A.W.[dF].A.K.[am]}$$$$V2.0),GH Released,Total Dose 1.0 µg i.v.,1593 ± 359 ng/mL
same,GH Released,Total Dose 3.0 µg i.v.,3337 ± 583 ng/mL
same,GH Released,Total Dose .1 µg i.v.,484 ± 89 ng/mL
same,GH Released,Total Dose .3 µg i.v.,971 ± 241 ng/mL
C[C@H](NC(=O)[C@@H](Cc1ccc2ccccc2c1)NC(=O)[C@@H](N)Cc1c[nH]cn1)C(=O)N[C@@H](Cc1c[nH]c2ccccc12)C(=O)N[C@H](Cc1ccccc1)C(=O)N[C@@H](CCCCN)C(N)=O [His-D^βNal-Ala-Trp-DPhe-Lys-NH₂] (HELM PEPTIDE1{H.[O=C([C@@H](Cc1ccc2ccccc2c1)N[*:1])[*:2]].A.W.[dF].K.[am]}$$$$V2.0),activity compared with peptides having another residue in the A₂ position,,"more active than compounds having DTrp, D^αNal, DAsp, and DCys (SMe) in the A₂ position"
C[C@H](N)C(=O)N[C@@H](Cc1c[nH]cn1)C(=O)N[C@H](Cc1c[nH]c2ccccc12)C(=O)N[C@@H](C)C(=O)N[C@@H](Cc1c[nH]c2ccccc12)C(=O)N[C@H](Cc1ccccc1)C(=O)N[C@@H](CCCCN)C(N)=O [AlaHisDTrpAlaTrpDPheLysNH₂] (HELM PEPTIDE1{A.H.[dW].A.W.[dF].K.[am]}$$$$V2.0),GH Released by Compound in Column A,Total Dose .3 µg i.v.,901 ± 21 ng/mL
CSC[C@@H](NC(=O)[C@@H](N)Cc1c[nH]cn1)C(=O)N[C@@H](C)C(=O)N[C@@H](Cc1c[nH]c2ccccc12)C(=O)N[C@H](Cc1ccccc1)C(=O)N[C@@H](CCCCN)C(N)=O [His-DCys(SMe)-Ala-Trp-DPhe-Lys-NH₂] (H-H[dC](Me)AW[dF]K-NH2),GH Released,Total Dose 1.0 µg i.v.,193 ± 28 ng/mL
same,GH Released,Total Dose 3.0 µg i.v.,180 ± 34 ng/mL
same,GH Released,Total Dose .3 µg i.v.,178 ± 28 ng/mL
C[C@H](NC(=O)[C@@H](Cc1c[nH]c2ccccc12)NC(=O)[C@@H](N)Cc1c[nH]cn1)C(=O)N[C@@H](Cc1c[nH]c2ccccc12)C(=O)N[C@H](Cc1ccccc1)C(=O)N[C@@H](CCCCN)C(N)=O [His-DTrp-Ala-Trp-DPhe-Lys-NH₂] (HELM PEPTIDE1{H.[dW].A.W.[dF].K.[am]}$$$$V2.0),GH Released,Total Dose 1.0 µg i.v.,1531 ± 303 ng/mL
same,GH Released,Total Dose 3.0 µg i.v.,2349 ± 267 ng/mL
same,GH Released,Total Dose .1 µg i.v.,512 ± 43 ng/mL
same,GH Released,Total Dose .3 µg i.v.,566 ± 114 ng/mL
"C[C@H](N)C(=O)N[C@@H](Cc1c[nH]cn1)C(=O)N[C@H](Cc1ccc2ccccc2c1)C(=O)N[C@@H](C)C(=O)N[C@@H](Cc1c[nH]c2ccccc12)C(=O)N[C@H](Cc1ccccc1)C(=O)N[C@@H](CCCCN)C(N)=O [Ala-His-DβNal-Ala-Trp-DPhe-Lys-NH₂, Ala-His-D^βNal-Ala-Trp-DPhe-Lys-NH₂] (HELM PEPTIDE1{A.H.[O=C([C@@H](Cc1ccc2ccccc2c1)N[*:1])[*:2]].A.W.[dF].K.[am]}$$$$V2.0)",GH Released Serum GH ng/ml ± SEM (N=6),"Total Dose 0.1 µg, several experiments with different controls",822 ± 243 ng/mL and 610 ± 90 ng/mL
same,GH Released Serum GH ng/ml ± SEM (N=6),[1],1418 ± 302 ng/mL and 1746 ± 318 ng/mL and 1549 ± 292 ng/mL and 1140 ± 187 ng/mL
same,GH Released Serum GH ng/ml ± SEM (N=6),[2],2201 ± 269 ng/mL and 2610 ± 176 ng/mL and 2180 ± 284 ng/mL and 2909 ± 257 ng/mL
same,GH Released Serum GH ng/ml ± SEM (N=6),Total Dose 3.0 µg,3686 ± 436 ng/mL
same,activity compared with peptides having another residue in the A₂ position,,more active than the equivalent DTrp compound
C[C@H](NC(=O)[C@@H](N)Cc1c[nH]cn1)C(=O)N[C@H](Cc1c[nH]c2ccccc12)C(=O)N[C@@H](C)C(=O)N[C@@H](Cc1c[nH]c2ccccc12)C(=O)N[C@H](Cc1ccccc1)C(=O)N[C@@H](CCCCN)C(N)=O [His-Ala-DTrp-Ala-Trp-DPhe-Lys-NH₂] (HELM PEPTIDE1{H.A.[dW].A.W.[dF].K.[am]}$$$$V2.0),GH Released,Total Dose 1.0 µg i.v.,830 ± 103 ng/mL
same,GH Released,Total Dose 3.0 µg i.v.,2588 ± 341 ng/mL
same,GH Released,Total Dose .3 µg i.v.,261 ± 32 ng/mL
C[C@H](N)C(=O)N[C@@H](Cc1c[nH]cn1)C(=O)N[C@H](Cc1ccccc1)C(=O)N[C@@H](C)C(=O)N[C@@H](Cc1c[nH]c2ccccc12)C(=O)N[C@H](Cc1ccccc1)C(=O)N[C@@H](CCCCN)C(N)=O [AlaHisDPheAlaTrpDPheLysNH₂] (HELM PEPTIDE1{A.H.[dF].A.W.[dF].K.[am]}$$$$V2.0),GH Released by Compound in Column A,Total Dose .3 µg i.v.,616 ± 74 ng/mL
C[C@H](NC(=O)[C@@H](Cc1ccccc1)NC(=O)[C@H](Cc1c[nH]c2ccccc12)NC(=O)[C@H](C)NC(=O)[C@@H](Cc1c[nH]c2ccccc12)NC(=O)[C@@H](N)Cc1c[nH]cn1)C(=O)N[C@@H](CCCCN)C(N)=O [His-DTrp-Ala-Trp-DPhe-Ala-Lys-NH₂] (HELM PEPTIDE1{H.[dW].A.W.[dF].A.K.[am]}$$$$V2.0),GH Released,Total Dose 1.0 µg i.v.,1965 ± 366 ng/mL
same,GH Released,Total Dose 3.0 µg i.v.,4553 ± 670 ng/mL
same,GH Released,Total Dose .1 µg i.v.,420 ± 105 ng/mL
same,GH Released,Total Dose .3 µg i.v.,900 ± 163 ng/mL
C[C@H](N)C(=O)N[C@H](Cc1ccc2ccccc2c1)C(=O)N[C@@H](C)C(=O)N[C@@H](Cc1c[nH]c2ccccc12)C(=O)N[C@H](Cc1ccccc1)C(=O)N[C@@H](CCCCN)C(N)=O [Ala-DβNal-Ala-Trp-DPhe-Lys-NH₂] (HELM PEPTIDE1{A.[O=C([C@@H](Cc1ccc2ccccc2c1)N[*:1])[*:2]].A.W.[dF].K.[am]}$$$$V2.0),GH Released Serum GH ng/ml ± SEM (N=6),[1],363 ± 73 ng/mL
same,GH Released Serum GH ng/ml ± SEM (N=6),[2],1450 ± 294 ng/mL
same,GH Released Serum GH ng/ml ± SEM (N=6),Total Dose 3.0 µg,2072 ± 208 ng/mL
same,GH Released Serum GH ng/ml ± SEM (N=6),Total Dose 10.0 µg,2698 ± 369 ng/mL
C[C@H](NC(=O)[C@@H](Cc1cccc2ccccc12)NC(=O)[C@@H](N)Cc1c[nH]cn1)C(=O)N[C@@H](Cc1c[nH]c2ccccc12)C(=O)N[C@H](Cc1ccccc1)C(=O)N[C@@H](CCCCN)C(N)=O [His-D^αNal-Ala-Trp-DPhe-Lys-NH₂] (HELM PEPTIDE1{H.[O=C([C@@H](Cc1cccc2ccccc12)N[*:1])[*:2]].A.W.[dF].K.[am]}$$$$V2.0),GH Released,Total Dose 1.0 µg i.v.,1130 ± 179 ng/mL
same,GH Released,Total Dose 3.0 µg i.v.,2319 ± 139 ng/mL
same,GH Released,Total Dose .1 µg i.v.,280 ± 70 ng/mL
same,GH Released,Total Dose .3 µg i.v.,439 ± 122 ng/mL
C[C@H](N)C(=O)N[C@@H](Cc1c[nH]cn1)C(=O)N[C@H](Cc1c[nH]cn1)C(=O)N[C@@H](C)C(=O)N[C@@H](Cc1c[nH]c2ccccc12)C(=O)N[C@H](Cc1ccccc1)C(=O)N[C@@H](CCCCN)C(N)=O [AlaHisDHisAlaTrpDPheLysNH₂] (HELM PEPTIDE1{A.H.[dH].A.W.[dF].K.[am]}$$$$V2.0),GH Released by Compound in Column A,Total Dose .3 µg i.v.,268 ± 54 ng/mL
C[C@H](NC(=O)[C@@H](CC(=O)O)NC(=O)[C@@H](N)Cc1c[nH]cn1)C(=O)N[C@@H](Cc1c[nH]c2ccccc12)C(=O)N[C@H](Cc1ccccc1)C(=O)N[C@@H](CCCCN)C(N)=O [His-DAsp-Ala-Trp-DPhe-Lys-NH₂] (HELM PEPTIDE1{H.[dD].A.W.[dF].K.[am]}$$$$V2.0),GH Released,Total Dose 1.0 µg i.v.,154 ± 63 ng/mL
same,GH Released,Total Dose 3.0 µg i.v.,155 ± 34 ng/mL
same,GH Released,Total Dose 10.0 µg i.v.,163 ± 44 ng/mL
same,GH Released,Total Dose 30.0 µg i.v.,224 ± 62 ng/mL
same,GH Released,Total Dose 100.0 µg i.v.,178 ± 83 ng/mL
